The values that follow are results of earlier work, collected in patent publication US20100137292A1, “Pharmaceutical formulations of meloxicam” (SANOVEL ILAC SANAYI VE TICARET A.S., priority 2008, published 2010).

As for `Cc1cnc(NC(=O)C2=C(O)c3ccccc3S(=O)(=O)N2C)s1` [Meloxicam, 4-hydroxy-2-methyl-N-(5-methyl-2-thiazolyl)-2H-1,2-benzothiazine-3-carboxamide-1,1-dioxide], under “alcohol”, the Solubility in alcohol result is “very slightly soluble”. Also, the Solubility in water result (water) is given as “practically insoluble”.
